Where two headings read alike, the source gives them in different places.
Key:
IGF1R [1] = target: T1, IGF1R (Homo sapiens, UniProt P08069); experiment: Cellular IGF-1R assay: inhibition of IGF1R phosphorylation in Hek293 cells, capture ELISA (MSD); type: cell-based; design: expressed in transfected cells; host or cells: Hek293 (Hek293-IGF1R); conditions: IGF-triggered receptor phosphorylation
Method: IVa. Cellular IGF-1R and InsR Assays
Compound-mediated inhibition of IGF1R and INSR phosphorylation in Hek293 cells transduced with the corresponding receptors is assessed in a capture ELISA format using the MSD (Meso Scale Discovery) platform. Briefly, 30′000 cells washed and diluted in starvation medium (DMEM high glucose supplemented with 0.1% BSA) are seeded in 90 μL per well into 96-well plates pre-coated with poly-D-lysine (0.1 mg/mL in PBS/O). After 24 h incubation at 37° C. and 5% CO2, dose-response effects are determined with 3-fold serial compound dilutions, starting at 10 μM. The final vehicle concentration is 0.1% DMSO in all wells. Following pre-incubation with compounds for 1 h, receptor phosphorylation is triggered by a 10 min exposure to 1.0 ng/μL IGF for Hek293-IGF1R cells, and 5.0 ng/μL insulin for Hek293-InsR cells. Cell lysis is achieved by addition of 80 μL MSD lysis buffer per aspirated well, incubation on ice for 20 min, and a freeze-thaw cycle. Target phosphorylation is then assessed by transferring volumes corresponding to approx. 6 μg Hek293-IGF1R or 0.6 μg Hek293-InsR lysates to MSD assay plates pre-coated with total-IGF1R or total-InsR Abs, respectively. […] Immune complexes are detected by a SULFO-Tag™-coupled anti-rabbit IgG antibody in the presence of 150 μL MSD read-buffer. Light emission at 620 nm triggered by application of electric current is recorded on a MSD Sectorlmager 6000. Acquired raw data (mean Ru-ECL units) are processed in an Excel analysis template. The plate blank (MSD lysis buffer) is subtracted from all data points. The effect of a particular test compound concentration on receptor phosphorylation is expressed relative to the window defined by ligand-stimulated vs unstimulated control cells (set as 100%). IC50 values [nM] are determined using 4-parametric curve-fitting (XLfit software, V4.3.2).

InsR = InsR (Homo sapiens, UniProt P06213); experiment: Enzymatic kinase assay (filter-binding/flashplate); type: biochemical
Method: (§1) Two methods were used to analyze phosphorylated peptides and proteins produced by the listed tyrosine and serine/threonine-specific protein kinases: either using a filter-binding assay (FB), or using a flashplate assay (FP). The activities of protein kinases were assayed in the presence or absence of inhibitors, by measuring the incorporation of ^33P from [γ^33P]ATP into appropriate substrates.
(§2) 96-well polypropylene microplates were used to assay the activity in the FB mode. To determine the inhibitory activity of compounds 10 μL of compound dilutions were pipetted into 96-well plates followed by the addition of 10 μL of assay mix and 10 μL of individual enzymes. With the addition of the enzymes the reactions were initiated and continued at RT. […] The final concentration of DMSO in the enzyme assays was 1%.
(§3) Flashplates are available as 96-well standard (STFPs) or as streptavidin-(SAFPs) or nickel coated FPs (NiFPs) from Perkin Elmer. STFPs are 96-well polystyrene microplates in which the interior of each well is permanently coated with a thin layer of polystyrene-based scintillant. Streptavidin flashplates (SAFP) are 96 or 384-well STFPs coated with streptavidin. SAFPs are suitable for a wide variety of assay applications which utilize biotinylated capture molecules. NiFP or nickel chelate flashplates are 96- or 384-well STFPs coated with nickel chelate. NiFPs are designed for in-plate, radiometric assays which utilize 4- or 6-histidine tagged proteins and peptides.
(§4) All kinase assays were performed in STFPs for 60 mins at RT and stopped with 50 μL of 0.5% H3PO4 except PKA which were carried out in polypropylene 96- and 384-well plates, respectively. […] All wells were then washed three times with 200 μL of 0.5% H3PO4 and the plates were dried at room temperature. The plates were sealed and counted in a microplate scintillation counter (TopCount NXT, TopCount NXT HTS). The final concentration of DMSO in the enzyme assays was 1%.

IGF1R [2] = target: T1, IGF1R; experiment: Enzymatic kinase assay (filter-binding/flashplate); type: biochemical
Method: as §1, §2, §3, §4

LCK = LCK (Homo sapiens, UniProt P06239); experiment: Enzymatic kinase assay; type: biochemical
Sequence of LCK (P06239 whole entry, species assumed): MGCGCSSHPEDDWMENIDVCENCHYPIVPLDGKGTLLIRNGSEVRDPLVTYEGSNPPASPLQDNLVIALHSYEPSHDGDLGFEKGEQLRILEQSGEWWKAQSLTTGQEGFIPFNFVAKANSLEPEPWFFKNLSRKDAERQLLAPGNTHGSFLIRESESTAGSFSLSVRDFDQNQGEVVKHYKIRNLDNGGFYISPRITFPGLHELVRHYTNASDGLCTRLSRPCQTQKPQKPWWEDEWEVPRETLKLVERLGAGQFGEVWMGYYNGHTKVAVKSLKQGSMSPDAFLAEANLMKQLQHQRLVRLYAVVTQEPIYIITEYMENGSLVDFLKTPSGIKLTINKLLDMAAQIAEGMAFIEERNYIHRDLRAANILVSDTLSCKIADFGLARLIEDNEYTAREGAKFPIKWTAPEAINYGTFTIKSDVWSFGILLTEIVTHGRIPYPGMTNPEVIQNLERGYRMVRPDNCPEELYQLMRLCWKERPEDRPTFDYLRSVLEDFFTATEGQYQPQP
Method: as §1, §2, §3, §4

ERK2 = ERK2 (Homo sapiens, UniProt P28482); experiment: Enzymatic kinase assay; type: biochemical
Method: as §1, §2, §3, §4

COT1 = COT1 (Homo sapiens, UniProt P41279); experiment: Enzymatic kinase assay; type: biochemical
Sequence of COT1 (P41279 whole entry): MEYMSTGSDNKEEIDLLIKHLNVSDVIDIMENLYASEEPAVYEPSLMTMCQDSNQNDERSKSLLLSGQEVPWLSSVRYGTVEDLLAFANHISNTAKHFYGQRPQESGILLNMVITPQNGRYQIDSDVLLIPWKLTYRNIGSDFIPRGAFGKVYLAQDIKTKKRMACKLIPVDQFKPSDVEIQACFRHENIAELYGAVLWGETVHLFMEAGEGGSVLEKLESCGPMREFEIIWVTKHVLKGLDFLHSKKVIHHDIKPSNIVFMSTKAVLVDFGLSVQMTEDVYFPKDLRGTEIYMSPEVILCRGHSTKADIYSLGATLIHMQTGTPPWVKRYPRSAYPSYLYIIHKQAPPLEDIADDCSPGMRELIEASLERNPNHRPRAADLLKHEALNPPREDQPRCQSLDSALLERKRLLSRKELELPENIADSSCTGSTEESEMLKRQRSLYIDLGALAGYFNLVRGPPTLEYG
Method: as §1, §2, §3, §4

cMET = cMET (Homo sapiens, UniProt P08581); experiment: Enzymatic kinase assay; type: biochemical
Method: as §1, §2, §3, §4

P38a = P38a (Homo sapiens, UniProt Q16539); experiment: Enzymatic kinase assay; type: biochemical
Method: as §1, §2, §3, §4

JAK2 = JAK2 (Homo sapiens, UniProt O60674); experiment: Enzymatic kinase assay; type: biochemical
Method: as §1, §2, §3, §4

FGFR-4 = FGFR-4 (Homo sapiens, UniProt P22455); experiment: Enzymatic kinase assay; type: biochemical
Method: as §1, §2, §3, §4

GSK3beta = GSK3beta (Homo sapiens, UniProt P49841); experiment: Enzymatic kinase assay; type: biochemical
Sequence of GSK3beta (P49841 whole entry, species assumed): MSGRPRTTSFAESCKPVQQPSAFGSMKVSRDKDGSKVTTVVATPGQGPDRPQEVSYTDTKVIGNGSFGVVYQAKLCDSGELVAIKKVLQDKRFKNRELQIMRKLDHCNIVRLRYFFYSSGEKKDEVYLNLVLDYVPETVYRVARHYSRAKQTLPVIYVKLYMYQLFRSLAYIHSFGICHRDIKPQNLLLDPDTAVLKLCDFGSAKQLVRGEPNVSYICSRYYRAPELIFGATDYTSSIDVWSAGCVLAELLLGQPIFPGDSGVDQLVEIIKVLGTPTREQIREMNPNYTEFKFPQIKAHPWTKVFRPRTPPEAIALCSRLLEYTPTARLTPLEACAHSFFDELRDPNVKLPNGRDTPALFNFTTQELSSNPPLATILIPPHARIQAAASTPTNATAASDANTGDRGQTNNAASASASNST
Method: as §1, §2, §3, §4

KDR = KDR (Homo sapiens, UniProt P35968); experiment: Enzymatic kinase assay; type: biochemical
Method: as §1, §2, §3, §4

EphA4 = EphA4 (Homo sapiens, UniProt P54764); experiment: Enzymatic kinase assay; type: biochemical
Method: as §1, §2, §3, §4

PDGFRa = PDGFRa (Homo sapiens, UniProt P16234); experiment: Enzymatic kinase assay; type: biochemical
Method: as §1, §2, §3, §4

Aurora A = target: T2, Aurora A (Homo sapiens, UniProt O14965); experiment: Enzymatic kinase assay; type: biochemical
T2 sequence (O14965 1-403): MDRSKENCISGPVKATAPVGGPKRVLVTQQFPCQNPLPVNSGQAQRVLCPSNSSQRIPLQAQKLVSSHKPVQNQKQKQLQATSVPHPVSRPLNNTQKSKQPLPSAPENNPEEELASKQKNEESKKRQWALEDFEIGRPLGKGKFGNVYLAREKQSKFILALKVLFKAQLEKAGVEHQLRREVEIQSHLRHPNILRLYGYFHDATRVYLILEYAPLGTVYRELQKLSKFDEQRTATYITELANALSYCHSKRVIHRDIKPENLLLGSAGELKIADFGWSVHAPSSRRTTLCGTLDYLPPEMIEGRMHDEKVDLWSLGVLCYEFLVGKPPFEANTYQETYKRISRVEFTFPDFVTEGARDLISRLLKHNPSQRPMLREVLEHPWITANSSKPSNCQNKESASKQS
Method: as §1, §2, §3, §4

MK2 = MK2 (Homo sapiens, UniProt P49137); experiment: Enzymatic kinase assay; type: biochemical
Sequence of MK2 (P49137 whole entry, species assumed): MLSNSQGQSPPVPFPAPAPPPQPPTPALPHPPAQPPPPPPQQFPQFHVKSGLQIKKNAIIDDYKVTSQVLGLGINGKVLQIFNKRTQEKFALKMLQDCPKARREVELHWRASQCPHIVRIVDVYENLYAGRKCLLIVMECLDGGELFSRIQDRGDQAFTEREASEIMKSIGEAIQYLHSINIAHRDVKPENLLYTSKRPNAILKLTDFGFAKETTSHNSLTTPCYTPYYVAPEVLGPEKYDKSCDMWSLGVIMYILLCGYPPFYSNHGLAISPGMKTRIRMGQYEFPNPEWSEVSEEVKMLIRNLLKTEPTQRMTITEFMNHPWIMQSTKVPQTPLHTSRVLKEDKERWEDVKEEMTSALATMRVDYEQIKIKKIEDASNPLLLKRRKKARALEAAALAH
Method: as §1, §2, §3, §4

CDK2A = CDK2A (Homo sapiens, UniProt P24941); experiment: Enzymatic kinase assay; type: biochemical
Method: as §1, §2, §3, §4

cABLT315 = cABLT315 (Homo sapiens, UniProt P00519, T315I); experiment: Enzymatic kinase assay; type: biochemical
Method: as §1, §2, §3, §4

RET = RET (Homo sapiens, UniProt P07949); experiment: Enzymatic kinase assay; type: biochemical
Sequence of RET (P07949 29-1114, species assumed): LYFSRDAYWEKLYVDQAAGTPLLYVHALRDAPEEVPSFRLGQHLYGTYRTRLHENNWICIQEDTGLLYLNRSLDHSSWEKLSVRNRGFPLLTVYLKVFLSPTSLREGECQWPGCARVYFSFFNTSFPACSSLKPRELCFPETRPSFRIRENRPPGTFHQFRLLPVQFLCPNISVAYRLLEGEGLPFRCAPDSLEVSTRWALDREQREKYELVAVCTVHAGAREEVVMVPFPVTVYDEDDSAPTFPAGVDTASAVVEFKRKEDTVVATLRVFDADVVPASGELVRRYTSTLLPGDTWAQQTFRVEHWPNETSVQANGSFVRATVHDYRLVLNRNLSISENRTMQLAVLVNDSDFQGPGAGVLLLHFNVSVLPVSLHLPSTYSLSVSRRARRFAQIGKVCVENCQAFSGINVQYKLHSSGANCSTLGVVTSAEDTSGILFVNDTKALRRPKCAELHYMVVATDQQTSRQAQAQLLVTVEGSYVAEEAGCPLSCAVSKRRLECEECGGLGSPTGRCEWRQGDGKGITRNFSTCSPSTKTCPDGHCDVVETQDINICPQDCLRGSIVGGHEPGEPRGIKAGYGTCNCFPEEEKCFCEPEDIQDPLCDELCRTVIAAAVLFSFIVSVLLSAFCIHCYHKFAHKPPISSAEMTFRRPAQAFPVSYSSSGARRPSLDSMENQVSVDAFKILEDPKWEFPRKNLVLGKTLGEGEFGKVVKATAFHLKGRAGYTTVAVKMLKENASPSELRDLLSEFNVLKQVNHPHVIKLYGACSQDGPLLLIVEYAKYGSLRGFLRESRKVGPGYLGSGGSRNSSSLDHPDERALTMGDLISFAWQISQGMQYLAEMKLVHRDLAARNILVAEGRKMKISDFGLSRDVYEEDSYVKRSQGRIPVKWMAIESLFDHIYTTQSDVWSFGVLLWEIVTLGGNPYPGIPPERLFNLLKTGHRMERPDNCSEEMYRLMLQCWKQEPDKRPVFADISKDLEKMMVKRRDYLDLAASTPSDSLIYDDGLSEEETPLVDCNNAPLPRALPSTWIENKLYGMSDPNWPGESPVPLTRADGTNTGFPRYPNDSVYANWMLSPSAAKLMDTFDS
Method: as §1, §2, §3, §4

HER2 = HER2 (Homo sapiens, UniProt P04626); experiment: Enzymatic kinase assay; type: biochemical
Sequence of HER2 (P04626 23-1255, species assumed): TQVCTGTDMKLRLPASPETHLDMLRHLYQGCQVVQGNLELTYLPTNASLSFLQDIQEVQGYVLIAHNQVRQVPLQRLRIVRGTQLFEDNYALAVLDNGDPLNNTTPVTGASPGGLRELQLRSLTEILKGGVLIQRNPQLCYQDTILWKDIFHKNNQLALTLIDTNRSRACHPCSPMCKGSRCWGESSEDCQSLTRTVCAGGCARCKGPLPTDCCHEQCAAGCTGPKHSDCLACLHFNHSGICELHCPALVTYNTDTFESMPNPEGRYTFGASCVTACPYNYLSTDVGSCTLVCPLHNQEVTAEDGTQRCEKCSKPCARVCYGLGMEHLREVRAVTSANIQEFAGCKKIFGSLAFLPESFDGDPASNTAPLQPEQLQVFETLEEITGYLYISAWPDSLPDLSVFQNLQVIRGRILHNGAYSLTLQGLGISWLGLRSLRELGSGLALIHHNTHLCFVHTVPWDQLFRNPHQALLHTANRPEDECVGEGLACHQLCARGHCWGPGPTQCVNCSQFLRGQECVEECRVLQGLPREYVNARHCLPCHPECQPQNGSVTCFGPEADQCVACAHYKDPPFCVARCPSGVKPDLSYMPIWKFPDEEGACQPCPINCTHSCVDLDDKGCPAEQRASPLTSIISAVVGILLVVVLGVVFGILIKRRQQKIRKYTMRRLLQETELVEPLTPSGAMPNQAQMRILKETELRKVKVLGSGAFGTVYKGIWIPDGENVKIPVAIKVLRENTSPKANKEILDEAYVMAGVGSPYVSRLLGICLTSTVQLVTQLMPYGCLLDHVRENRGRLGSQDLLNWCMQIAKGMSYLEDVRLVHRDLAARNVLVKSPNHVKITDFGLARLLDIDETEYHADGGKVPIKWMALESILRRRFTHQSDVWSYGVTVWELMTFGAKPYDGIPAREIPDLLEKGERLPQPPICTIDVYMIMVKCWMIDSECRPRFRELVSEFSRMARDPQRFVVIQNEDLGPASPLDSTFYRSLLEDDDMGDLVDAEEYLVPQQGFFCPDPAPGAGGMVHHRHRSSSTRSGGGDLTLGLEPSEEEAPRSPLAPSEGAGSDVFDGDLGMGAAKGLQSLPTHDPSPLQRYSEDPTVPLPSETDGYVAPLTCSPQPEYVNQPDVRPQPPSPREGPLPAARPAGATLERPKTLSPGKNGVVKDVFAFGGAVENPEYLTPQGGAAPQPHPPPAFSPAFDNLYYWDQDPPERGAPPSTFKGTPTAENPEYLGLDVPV
Method: as §1, §2, §3, §4

TYK2 = TYK2 (Homo sapiens, UniProt P29597); experiment: Enzymatic kinase assay; type: biochemical
Method: as §1, §2, §3, §4

cKIT = cKIT (Homo sapiens, UniProt P10721); experiment: Enzymatic kinase assay; type: biochemical
Sequence of cKIT (P10721 26-976): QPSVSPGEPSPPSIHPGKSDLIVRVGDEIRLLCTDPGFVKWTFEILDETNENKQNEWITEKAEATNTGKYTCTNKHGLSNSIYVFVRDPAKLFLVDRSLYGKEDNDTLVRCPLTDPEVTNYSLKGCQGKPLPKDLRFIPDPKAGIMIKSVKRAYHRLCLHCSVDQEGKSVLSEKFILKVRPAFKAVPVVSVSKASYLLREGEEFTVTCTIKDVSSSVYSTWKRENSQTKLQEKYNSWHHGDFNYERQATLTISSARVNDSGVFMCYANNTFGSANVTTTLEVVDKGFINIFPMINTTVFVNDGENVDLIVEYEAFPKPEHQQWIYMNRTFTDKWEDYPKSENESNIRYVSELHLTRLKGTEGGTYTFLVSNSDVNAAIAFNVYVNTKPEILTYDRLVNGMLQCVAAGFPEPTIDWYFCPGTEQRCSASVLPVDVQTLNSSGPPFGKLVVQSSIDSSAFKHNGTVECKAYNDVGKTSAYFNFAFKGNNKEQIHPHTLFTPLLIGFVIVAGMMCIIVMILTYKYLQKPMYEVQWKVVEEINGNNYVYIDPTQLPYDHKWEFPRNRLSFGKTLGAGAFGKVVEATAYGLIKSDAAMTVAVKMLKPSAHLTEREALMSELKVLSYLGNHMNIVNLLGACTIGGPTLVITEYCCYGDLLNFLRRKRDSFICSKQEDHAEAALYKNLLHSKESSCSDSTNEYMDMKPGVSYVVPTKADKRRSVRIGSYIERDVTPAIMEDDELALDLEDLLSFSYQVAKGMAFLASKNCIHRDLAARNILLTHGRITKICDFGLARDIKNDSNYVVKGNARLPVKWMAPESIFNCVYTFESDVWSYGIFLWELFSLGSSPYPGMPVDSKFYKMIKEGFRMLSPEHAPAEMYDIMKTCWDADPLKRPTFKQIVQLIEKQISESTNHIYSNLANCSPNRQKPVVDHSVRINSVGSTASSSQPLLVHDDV
Method: as §1, §2, §3, §4

hERG channels = hERG channels (Homo sapiens, UniProt Q12809); experiment: biochemical
c-src = c-src (Homo sapiens, UniProt P12931); experiment: Kinase assay of known compound and phenol metabolite X; type: biochemical; conditions: metabolite comparison table
EphB4 = EphB4 (Homo sapiens, UniProt P54760); experiment: as above; type: biochemical; conditions: metabolite comparison table
C-Abl = C-Abl (Homo sapiens, UniProt P00519); experiment: as above; type: biochemical; conditions: metabolite comparison table
[3] = enzymatic, read-out: InsR IC50 values
[4] = enzymatic, read-out: RET IC50 values (converted)

IC50 (InsR; [3]) [µM]	IC50 (IGF1R [2]) [µM]	IC50 (LCK) [µM]	IC50 (ERK2) [µM]	IC50 (COT1) [µM]	IC50 (cMET) [µM]	IC50 (P38a) [µM]	IC50 (JAK2) [µM]	IC50 (FGFR-4) [µM]	IC50 (GSK3beta) [µM]	IC50 (KDR) [µM]	IC50 (EphA4) [µM]	IC50 (PDGFRa) [µM]	IC50 (Aurora A) [µM]	IC50 (MK2) [µM]	IC50 (CDK2A) [µM]	IC50 (cABLT315) [µM]	IC50 (RET; [4]) [µM]	IC50 (HER2) [µM]	IC50 (TYK2) [µM]	SMILES	also measured
0.039	0.0038	8.6	> 10	> 10	> 10	> 10	> 10	> 10	> 10	5.7	> 10	8.3	> 10	> 10	> 10	> 10	3.4	> 10	> 10	Nc1ncnc2c1c(-c1cccc(OC[C@@H]3CCCO3)c1F)cn2[C@H]1C[C@@H](CN2CC[S+]([O-])CC2)C1 [Example 6, 5-{2-Fluoro-3-[(S)-1-(tetrahydro-furan-2-yl)methoxy]-phenyl}-7-[cis-3-(1-oxo-thiomorpholin-4-ylmethyl)-cyclobutyl]-7H-pyrrolo[2,3-d]pyrimidin-4-ylamine]	IC50 (IGF1R [1]): 0.01 µM; IC50 (cKIT): 0.77 µM; IC50 (hERG channels): > 30 µM
0.25	0.013	> 10	> 10	> 10	> 10	> 10	> 10	> 10	> 10	4.5	> 10	> 10	> 10	> 10	> 10	> 10	> 10	> 10	> 10	Nc1ncnc2c1c(-c1cccc(OC[C@@H]3CCCO3)c1F)cn2C1CC2(CNC(=O)O2)C1 (stereo partly drawn) [Example 4, 2-(4-Amino-5-{2-fluoro-3-[(S)-1-(tetrahydro-furan-2-yl)methoxy]-phenyl}-pyrrolo[2,3-d]pyrimidin-7-yl)-5-oxa-7-aza-spiro[3.4]octan-6-one]	IC50 (IGF1R [1]): 0.017 µM; IC50 (cKIT): > 10 µM; IC50 (hERG channels): 8.7 µM
0.043	0.015	> 10	> 10	> 10	> 10	> 10	> 10	> 10	> 10	> 10	> 10	> 10	> 10	> 10	> 10	> 10	> 10	> 10	> 10	[2H]C1([2H])C([2H])([2H])C2(COc3cccc(-c4cn([C@H]5C[C@@H](N6CC[S+]([O-])CC6)C5)c5ncnc(N)c45)c3F)OC1([2H])C([2H])([2H])C2([2H])[2H] [Example 18, d9-5-[2-Fluoro-3-(7-oxa-bicyclo[2.2.1]hept-1-ylmethoxy)-phenyl]-7-[cis-3-(1-oxo-thiomorpholin-4-yl)-cyclobutyl]-7H-pyrrolo[2,3-d]pyrimidin-4-ylamine]	IC50 (IGF1R [1]): 0.004 µM; IC50 (cKIT): > 10 µM; IC50 (hERG channels): > 30 µM
–	–	–	–	–	–	–	–	–	–	–	–	–	–	–	–	–	–	–	–	Nc1ncnc2c1c(-c1cccc(OCc3ccccc3)c1)cn2[C@H]1C[C@@H](CN2CCC2)C1 [WO02/092599, ex. 102]	IC50 (InsR; metabolite comparison table, read-out: InsR IC50): 0.23 µM; IC50 (RET; metabolite comparison table, read-out: RET IC50): 4.4 µM; IC50 (c-src): > 10 µM; IC50 (EphB4): > 10 µM; IC50 (C-Abl): > 10 µM
0.27	0.0087	> 10	> 10	> 10	> 10	> 10	> 10	> 10	> 10	9.2	> 10	> 10	> 10	> 10	> 10	> 10	> 10	> 10	> 10	Nc1ncnc2c1c(-c1cc(OC[C@@H]3CCCO3)ccc1F)cn2[C@H]1C[C@@H](N2CCN(C(=O)CO)CC2)C1 [Example 40, 1-{4-[cis-3-(4-Amino-5-{2-fluoro-5-[(S)-1-(tetrahydro-furan-2-yl)methoxy]-phenyl}-pyrrolo[2,3-d]pyrimidin-7-yl)-cyclobutyl]-piperazin-1-yl}-2-hydroxy-ethanone]	IC50 (cKIT): > 10 µM; IC50 (hERG channels): > 30 µM
